The values that follow come from PubChem BioAssay AID720495 (Broad Institute, 2013).

In general, AC50 refers to the concentration giving half of the maximal activity seen.

SMILES strings stand for the structures. Results filed as inconclusive are left out. Calls of active or inactive are those of the source. The rule behind the calls is not given here.

Sequence of Protein AF-9 (Homo sapiens) (P42568 whole entry, looked up): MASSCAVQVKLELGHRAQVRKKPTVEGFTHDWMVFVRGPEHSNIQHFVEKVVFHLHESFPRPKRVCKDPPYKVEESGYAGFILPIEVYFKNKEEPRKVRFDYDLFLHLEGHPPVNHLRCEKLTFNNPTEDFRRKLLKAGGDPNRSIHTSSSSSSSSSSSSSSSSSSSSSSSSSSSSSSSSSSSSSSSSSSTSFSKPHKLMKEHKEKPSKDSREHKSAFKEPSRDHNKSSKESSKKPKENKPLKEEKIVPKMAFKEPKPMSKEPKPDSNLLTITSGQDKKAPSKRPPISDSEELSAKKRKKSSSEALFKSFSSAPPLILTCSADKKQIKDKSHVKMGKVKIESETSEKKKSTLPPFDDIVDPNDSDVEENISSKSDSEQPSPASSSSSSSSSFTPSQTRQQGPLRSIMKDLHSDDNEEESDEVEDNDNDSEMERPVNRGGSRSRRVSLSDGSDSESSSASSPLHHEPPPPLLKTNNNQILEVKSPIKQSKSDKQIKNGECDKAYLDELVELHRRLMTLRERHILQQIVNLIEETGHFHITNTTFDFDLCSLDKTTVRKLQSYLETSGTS

One assay addresses Protein AF-9 (Homo sapiens) (UniProt P42568). The assay is described as follows: inhibitors of AF4-AF9 protein interaction, dose response, biochemical, cherry-picked samples, plate reader (AID 720495). As to conditions: biochemical protein-protein interaction assay.
On to `O=C1c2cccc(NCCNCCO)c2C(=O)c2cccc(NCCNCCO)c21`, for which the AC50 is 6.88 µM. Consider `CC[C@H](C)[C@@H]1NC(=O)c2cc([N+](=O)[O-])cc(F)c2NCCCC[C@@H](C(N)=O)NC(=O)[C@H](CCCCN)NC1=O`, for which the half-maximal activity concentration (AC50) was 9.36 µM.

For the molecule `Brc1ccc(N/N=C(/N=Nc2nn[nH]n2)c2ccccc2)cc1`, the AC50 was 5.84 µM. On to `CN(C)c1ccc(N=Nc2ccccc2Br)cc1`, for which the AC50 is 10.3 µM.

Turning to `CN(C)c1ccc2nc3ccc(=O)cc-3sc2c1`, the concentration at half-maximal activity (AC50) was 11.3 µM. `Cc1cccc(NC2=C(NCCO)C(=O)c3ccccc3C2=O)c1`: the half-maximal activity concentration (AC50) was 3.55 µM. With `CCCCCc1cc(=O)oc2c(C(CCN3CCCC3)c3ccc(N(C)C)cc3)c(OC)cc(OC)c12` (configuration not stated), the AC50 was 2.31 µM. Still for that read-out and setting: for `Oc1c(C(c2ccccn2)N2CCCCC2)cc(Cl)c2cccnc12` (configuration not stated) the value was 1.84 µM; for `NC(=NCCCCCCN=C(N)/N=C(\N)Nc1ccc(Cl)cc1)/N=C(\N)Nc1ccc(Cl)cc1`, 5.27 µM; for `C[C@H](CO)N1C[C@H](C)[C@@H](CN(C)Cc2ccc(Cl)c(Cl)c2)Oc2ccc(N(C)C)cc2CC1=O`, 10.8 µM. The same measure, in the same setting: as for `CC1(C)CNc2cc(N)ccc2S1`, the figure is 2.52 µM; as for `Cc1ccc2c(c1)C1CN(C)CCC1N2Sc1ccccc1[N+](=O)[O-]` (configuration not stated), 5.01 µM. As for `Cc1c(C(=O)NCC(c2ccco2)N(C)C)oc2c(Cl)cccc12` (configuration not stated), the AC50 is 7.77 µM.

With `COc1ccc2[nH]c3c(C)c4cc[n+](C)cc4c(C)c3c2c1`, the concentration at half-maximal activity (AC50) was 3.07 µM. Still for that read-out and setting: as for `CS(=O)(=O)N1CCCCN2[C@H](C1)[C@H](c1ccc(C#Cc3ccccn3)cc1)[C@@H]2CO`, the figure is 7.82 µM; as for `CCn1c(-c2ccccc2)csc1=Nc1ccc(O)cc1`, 6.97 µM. On to `C[C@@H]1CN([C@@H](C)CO)C(=O)c2cc(N(C)C)ccc2O[C@@H]1CN(C)Cc1ccc(-c2ccccc2)cc1`, for which the AC50 was 8.93 µM. For `CCC(=O)N1CC2(CCN(Cc3ccc(Cl)cc3)CC2)c2c([nH]c3cc(OC)ccc23)[C@H]1CO`, the AC50 is 10.4 µM.

Take `COc1ccc(C(CCNCc2ccc(N(C)C)cc2)C(C)C)cc1` (configuration not stated): the half-maximal activity concentration (AC50) was 2.88 µM. Consider `Cc1[nH]c2ccccc2c1C(C#N)(C#N)C1C(=O)c2ccccc2C1=O`, for which the AC50 was 0.981 µM. Regarding `COc1ccc(OC)c(Nc2c3ccccc3nc3ccccc23)c1`, the AC50 was 7.11 µM. In the case of `COc1cc(NCCCCCCN)c2ncccc2c1OC`, the AC50 is 2.62 µM.

Take `COc1ccc(NCc2nn(CC(=O)c3ccc(Br)cc3)c3[n+]2CCCCC3)cc1`: the AC50 was 8.83 µM. As for `COc1cccc(NC2=C(NCCO)C(=O)c3ccccc3C2=O)c1`, the AC50 was 6.38 µM. For `CCN(Cc1ccccc1)c1ccc(/C=N/N=C(N)N)cc1`, the AC50 is 4.43 µM.

Consider `CN(CCc1ccccc1)C(=O)c1ccc(NC(=O)Cc2ccc(NC(=O)C3CCN(C(=O)C4CCCC4)CC3)cc2)cc1`, for which the AC50 is below 0.08 µM.

For `CN1CCN(C2CCN(Cc3ccc(O)c4ncccc34)CC2)CC1`, the AC50 was 2.77 µM. Still for that read-out and setting: as for `C#CCOCCOCCOCCNc1nc(N2CCN(C(=O)[C@H](CCCCN)n3cc([C@@H](N)CC(N)=O)nn3)CC2)nc(N2CCN(C(=O)[C@H](CCCCN)n3cc([C@@H](N)CC(N)=O)nn3)CC2)n1`, the figure is 6.87 µM. Turning to `C#CCOCCOCCOCCNc1nc(N2CCN(C(=O)[C@H](CCCN=C(N)N)n3cc(C(N)[C@@H](C)CC)nn3)CC2)nc(N2CCN(C(=O)[C@H](CCCCN)n3cc([C@@H](N)[C@H](C)CC)nn3)CC2)n1` (some centres not stated), the AC50 was 3.6 µM. Still for that read-out and setting: as for `CC[n+]1c(/C=C/c2ccc(N(C)C)cc2)ccc2ccccc21`, the figure is 8.28 µM; as for `COc1ccc(N2CCN(CCCNC(=O)CCC(=O)N3CCOc4ccc(Cl)cc43)CC2)cc1`, 11.5 µM. `O=C(CN1CCCC1)N/N=C/c1c(O)ccc2ccccc12`: the AC50 was 0.249 µM. With `CN1CCN(C(c2ccc(Cl)cc2)c2cc(Cl)c3cccnc3c2O)CC1` (configuration not stated), the AC50 is 0.984 µM.

Turning to `CCC1CN2CCc3cc(OC)c(OC)cc3C2CC1CC1NCCc2c1[nH]c1ccc(O)cc21` (configuration not stated), the AC50 is 7.26 µM. `C[C@H]1CCCCO[C@H](CN(C)Cc2ccc(Cl)c(Cl)c2)[C@@H](C)CN([C@@H](C)CO)C(=O)c2cc(N(C)C)ccc2O1`: the AC50 was 10.6 µM. Take `CCN(CC)c1ccc(N=C2C(=O)Nc3ccccc32)cc1`: the AC50 is 2.77 µM.

Turning to `CN(C)CCNc1ncnc2c1sc1nc(-c3ccccc3)c3c(c12)CCCC3`, the AC50 is 6.89 µM.

With `CN(C)c1ccc(N=C/C=C2/N(C)c3ccccc3C2(C)C)cc1`, the AC50 was 7.5 µM. For the molecule `CCSc1ccc(-c2cc(NC=O)c3ncc(-c4cccc(C(=O)NCCN(C)C)c4)n3c2)cc1`, the AC50 was 0.798 µM. `CCCN(CC1CC1)c1cc2c(c3c1ccn3C)C1CCC2C1` (configuration not stated): the AC50 was 7.79 µM. Still for that read-out and setting: as for `CCOC(=O)c1c(-c2ccc(-c3ccccc3)cc2)csc1NC(=O)CNCCN(C)C`, the figure is 5.86 µM; as for `CNC[C@H](Cc1ccccc1)NC[C@@H](Cc1cccc2ccccc12)NCCc1ccc(C)cc1`, 10.1 µM; as for `C#CCOCCOCCOCCNc1nc(N2CCN(C(=O)[C@H]([C@@H](C)CC)n3cc(CCCN=C(N)N)nn3)CC2)nc(N2CCN(C(=O)[C@H](CCCCN)n3cc(CCCC)nn3)CC2)n1`, 8.98 µM.

The assay is the same for the next values; noted with them: biochemical protein-protein interaction assay, at 10 µM (top of the series).
Consider `COc1cc(O)c(C(CCN2CCN(c3ccccc3)CC2)c2ccc(N(C)C)cc2)c(OC)c1` (configuration not stated), for which the “activity change, negative = inhibition” value was “inactive”. On to `O=C(NC1CCCCC1)C(c1cccnc1)N(C(=O)CCl)c1cccc(Cl)c1` (configuration not stated), for which the “activity change, negative = inhibition” value is “inactive”. On the same count and under the same terms, for `CCN(CC)c1ccc(N=Cc2ccc([N+](=O)[O-])o2)cc1` the value was “inactive”; for `CCOC(=O)C1CCCN(C2=C(NS(=O)(=O)c3ccc(Br)cc3)C(=O)c3ccccc3C2=O)C1` (configuration not stated), “inactive”; for `Cc1ccc(Nc2cc(C)nc3c(C)ccc([N+](=O)[O-])c23)cc1`, “inactive”. On the same count and under the same terms, as for `CC(C)N1C(=O)/C(=C\c2nc3ccccc3c(=O)[nH]2)c2ccccc21`, the entry is “inactive”; as for `COCCCNCC(O)COc1cccc2[nH]c(C)cc12` (configuration not stated), “inactive”.

For `S=C(c1ccc(-c2cccc(Cl)c2)o1)N1CCOCC1`, the “activity change, negative = inhibition” value is “inactive”. As for `CCOc1cc(/C=N/N=C(N)N)ccc1OCc1ccc(Cl)cc1`, the “activity change, negative = inhibition” value was “inactive”. `COc1ccc(NC2CCCN(Cc3cccc4cnccc34)C2)cc1OC` (configuration not stated): the “activity change, negative = inhibition” value was “inactive”. In the case of `O=[N+]([O-])c1cc(/C=N/Nc2nc3ccccc3[nH]2)c(O)cc1O`, the “activity change, negative = inhibition” value is “inactive”.

As for `C[C@H](CO)N1C[C@H](C)[C@H](CN(C)Cc2ccc(Cl)c(Cl)c2)Oc2ccc(N(C)C)cc2C1=O`, the “activity change, negative = inhibition” value was “inactive”. Consider `CN(C)c1ccc(NC(=O)Cn2cc3c(n2)CCCC3)cc1`, for which the “activity change, negative = inhibition” value is “inactive”. For `CC(=O)c1ccc(OCC(=O)Nc2ccc(N3CCCCC3)cc2)cc1`, the “activity change, negative = inhibition” value was “inactive”. Take `CN=c1scc(-c2ccccc2F)n1/N=C(\C)c1cccnc1`: the “activity change, negative = inhibition” value was “inactive”.

For the molecule `COc1ccccc1NC(c1cccnc1)c1ccc2cccnc2c1O` (configuration not stated), the “activity change, negative = inhibition” value is “inactive”. With `Cc1cc(C)cc(OCC(O)CN2CCC(CN3C(=O)c4cccc5cccc(c45)C3=O)CC2)c1` (configuration not stated), the “activity change, negative = inhibition” value was “inactive”. For the molecule `COc1ccc(-c2ccc3[nH]c4c(c3c2)CCN2C[C@H]3[C@H](C)ON(C)[C@H]3C[C@@H]42)cc1`, the “activity change, negative = inhibition” value was “inactive”. Regarding `Cc1oc(-c2cccc3ccccc23)nc1CN1CCN(c2ncnc3ccccc23)CC1`, the “activity change, negative = inhibition” value is “inactive”. For the molecule `O=C1CN=C(c2ccc(Br)cc2)c2c(sc3c2CCCC3)N1CCN1CCCCC1`, the “activity change, negative = inhibition” value was “inactive”. Consider `Cc1cccc(Nc2cc(C)c3c(O)cccc3n2)c1C`, for which the “activity change, negative = inhibition” value is “inactive”.

In the case of `O=C(NC1CCCCC1)C(c1cccs1)N(CCCN1CCOCC1)C(=O)c1ccc(-c2ccccc2)[nH]1` (configuration not stated), the “activity change, negative = inhibition” value was “inactive”.

For the molecule `COc1ccc(-c2oc3ccccc3c(=O)c2OC(C)=O)cc1`, the “activity change, negative = inhibition” value is “inactive”. As to `CCOc1ccc(Nc2nc(NCC3CCCO3)c3ccccc3n2)cc1` (configuration not stated), the “activity change, negative = inhibition” value is “inactive”.

Take `COc1ccc(N2CCN(CCCNC(=O)C(=O)c3c(C)n(C)c4ccccc34)CC2)cc1`: the “activity change, negative = inhibition” value was “inactive”. With `CNC(=S)N1N=C(c2ccc(C)cc2)CC1c1ccc(N(C)C)cc1` (configuration not stated), the “activity change, negative = inhibition” value was “inactive”. Turning to `CCN1CCN(c2ccc(N)c(C)c2)CC1`, the “activity change, negative = inhibition” value was “inactive”. As to `Cc1c(C)n(Cc2ccccc2)c2ccc(C(=O)OCCN(C)C)cc12`, the “activity change, negative = inhibition” value is “inactive”. `Cc1ccc2c(c1)c1c3n2CCCN(Cc2ccccc2)C3CCC1` (configuration not stated): the “activity change, negative = inhibition” value is “inactive”.

Consider `CCCCCN=C(N)N/N=C/c1c[nH]c2ccc(OC)cc12`, for which the “activity change, negative = inhibition” value is “inactive”.

For the molecule `c1ccc2c(Nc3ccc4c(c3)OCCO4)c3c(nc2c1)CCCC3`, the “activity change, negative = inhibition” value is “inactive”.

`CN=c1scc(-c2ccc(OC)cc2)n1/N=C(\C)c1cccnc1`: the “activity change, negative = inhibition” value is “inactive”. Still for that read-out and setting: for `C[C@@H]1CN([C@@H](C)CO)C(=O)Cc2cc(N(C)C)ccc2O[C@H]1CN(C)Cc1ccc(Cl)c(Cl)c1` the value was “inactive”; for `CN(C)C(CNC(C(=O)Nc1ccc([N+](=O)[O-])cc1Br)c1ccccc1)c1ccccc1` (configuration not stated), “inactive”; for `Cc1csc(Nc2ccccc2)[n+]1-c1ccccc1`, “inactive”. Still for that read-out and setting: for `COc1cccc(-c2ccc3c(c2)[C@H]2[C@H](CCN2C(=O)C2CCCCC2)[C@@H](CO)N3)c1` the value was “inactive”; for `Cn1ccc2c(N3CCCCC3)cc3c(c21)C1CCC3C1` (configuration not stated), “inactive”.

Regarding `CN(C)c1ccc(NC(=S)NC23CC4CC(CC(C4)C2)C3)cc1`, the “activity change, negative = inhibition” value is “inactive”. In the case of `O=C(C[C@H]1CC[C@@H]2[C@H](COC[C@@H](O)CN2S(=O)(=O)c2ccc(F)cc2)O1)NCC1CCCCC1`, the “activity change, negative = inhibition” value is “inactive”.
